Source: US10590422B2, “Anticancer therapeutic intervention” (PHYZAT BIOPHARMACEUTICALS, LDA., priority 2017, dated 2020)

How the values were obtained:
[1] = system: human colon cancer HTC-116 cells xenograft tumour; assay: Xenograft tumour model, relative tumour volume, intratumoral injections; format: in vivo, NMRI nu/nu mice; conditions: immune deficient mice, subcutaneous HTC-116; 10 μg intratumoral (50 μL) every other day; versus vehicle (Injectin); FIG. 23
Method: Human colon cancer HTC-116 cells grown in tissue culture and 10^7 cells per mouse were injected into the hind flank of female NMRI nu/nu mice. Once tumours have developed and tumour volumes reached randomisation criteria, therapy will commence by every other day […], intra-tumoral injections. A vehicle treated group was included in the study as control. Female immunodeficient NMRI nu/nu mice from Charles River were used. The animals were delivered at the age of 4-6 weeks and are used for implantation after at least 1 week of quarantine. […] During the experiments, animals were monitored at least daily. […]
The tumour volume was determined by a two-dimensional measurement with callipers on the day of randomization (Day 0) and then twice weekly. Tumour volumes were calculated according to the following equation: Tumour Vol [mm^3]=a [mm]×b^2 [mm^2]×0.5 […]
The relative volume of an individual tumour on day X (RTVx) was calculated by dividing the absolute volume [mm^3] of the respective tumour on day X (Tx) by the absolute volume of the same tumour on the day of randomization, i. e. on day 0 (T0), multiplied by 100, as shown by the following equation: […]
Group median and range (alternatively geometric mean+/−SEM) of RTVs were calculated, considering only the tumours of animals that were alive on the day in question (for median). […]

[2] = system: human colon cancer HTC-116 cells; assay: Cell proliferation assay (calcein-AM) in human colon cancer HTC-116 cells; format: cell-based; conditions: for Decrease in cell proliferation greater the higher the concentration of Injectin in the siRNA:Injectin complexes: Injectin 0.037% to 0.15%; for cell proliferation / proliferation: treatment 6 h; for proliferation: at 72 h, 0.17% Lipofectamine 2000 or 0.1% Injectin, FIGS. 19B and 20B
Method: SK-HEP-1, T24, HT-1080 and HCT-116 cell lines were maintained in a humidified atmosphere of 5% CO2 at 37° C. SK-HEP-1 cells were grown in RPMI-1640 (Sigma, St. Louis, Mo.) supplemented with 20% fetal bovine serum (FBS) (Gibco, UK), 100 U/mL penicillin G, 0.25 μg/mL amphotericin B, 100 μg/mL streptomycin (Gibco, UK), 25 mM sodium bicarbonate (Merck, Germany) and 25 mM N-2-hydroxyethylpiperazine-N′-2-ethanosulfonic acid (HEPES) (Sigma, St. Louis, Mo.). T24 and HT-1080 cells were grown, respectively, in Dulbecco's Modified Eagle's Medium (DMEM)—high glucose (Sigma, St. Louis, Mo.) and DMEM—low glucose (Sigma, St. Louis, Mo.), supplemented with 10% FBS (Gibco, UK), 100 U/mL penicillin G, 0.25 μg/mL amphotericin B, 100 μg/mL streptomycin (Gibco, UK), 25 mM sodium bicarbonate (Merck, Germany) and 25 mM HEPES (Sigma, St. Louis, Mo.). HCT-116 cells were grown in McCoy's 5A (Sigma, St. Louis, Mo.) supplemented with 10% FBS (Gibco, UK), 100 U/mL penicillin G, 0.25 μg/mL amphotericin B, 100 μg/mL streptomycin (Gibco, UK), 25 mM sodium bicarbonate (Merck, Germany) and 25 mM HEPES (Sigma, St. Louis, Mo.). For all cell lines the medium was changed every 2 days, and cells reached confluence 3-4 days after initial seeding. For subculturing, cells were dissociated with 0.25% trypsin-ethylenediaminetetraacetic acid (EDTA) (Sigma, St. Louis, Mo.), split 1:15 or 1:20 and subcultured in a 21-cm^2 growth area (Sarstedt, Germany).
Cell proliferation was measured using calcein-AM (Thermo Fisher Scientific, USA). The membrane permeant calcein-AM, a nonfluorescent dye, is taken up and converted by intracellular esterases to membrane impermeant calcein, which emits green fluorescence. Cells were plated in 96-well plates with black walls clear bottom (BD Biosciences, USA) and incubated 24 h under normal growth conditions. Cells were incubated with test items at 37° C., 5% C02. After the incubation period, serum and antibiotic was restored and cells were further incubated at normal conditions during 72 h. After treatment with test substances or vehicle, cells were washed twice with Hanks' medium and loaded with 2 μM calcein-AM in Hanks' medium, at 37° C. for 30 min. Fluorescence was measured at 485 nm excitation and 530 nm emission wavelengths in a microplate spectrofluorometer (Gemini EM, Molecular Devices). Nine consecutive fluorescence measurements are performed per well, to allow fluorescence readings in the whole area of the well, which was then considered for the calculation of mean fluorescence per well. To determine minimum staining for calcein (calceinmin), eight wells were treated with ethanol 30 min before calcein-AM addition. The percent cell number is calculated as [(calceinsample)/(calceincontrol)]×100.

[3] = 72 h exposure, 0.1% Injectin, FIG. 14
[4] = 72 h exposure, increasing Injectin (0.037% to 0.15%), FIG. 15

## 58/387/388 (sense CUUCGCCACCUACCUGCUCAATT; antisense UUGAGCAGGUAGGUGGCGAAGTT; siRNA; sugars by position and backbone not given here; further chemistry not fully specified)
[1]
  reduction in relative tumour volume: statistically significant
[2]; 25 nM, 72 h exposure, Injectin, FIG. 18A
  proliferation (siRNA-LAT1 alone): significant decrease
[2]; 5-FU 10 μM, siRNA 25 nM, 72 h, 0.037% Injectin, FIG. 17A
  Effect of 5-fluoruracil upon proliferation in combination with the siRNA: enhanced
[2]; 5-FU 3 and 10 μM, siRNA 5 and 25 nM, concentration dependent, 72 h, 0.25% Lipofectamine 2000, FIG. 16
  Effect of 5-fluoruracil upon proliferation in combination with the siRNA: significantly enhanced
[2]; 72 h, FIG. 15
  Decrease in cell proliferation greater the higher the concentration of Injectin in the siRNA:Injectin complexes: particularly evident
[2]; Cisp 3 and 10 μM, siRNA 5 and 25 nM, concentration dependent, 72 h, 0.25% Lipofectamine 2000, FIG. 16
  Effect of cisplatin upon proliferation in combination with the siRNA: significantly enhanced
[2]; Oxa 1 and 3 μM, siRNA 5 and 25 nM, concentration dependent, 72 h, 0.25% Lipofectamine 2000, FIG. 16
  Effect of oxaliplatin upon proliferation in combination with the siRNA: significantly enhanced
[2]; [3]
  cell proliferation: decreased
[2]; [4]
  cell proliferation: decreased
[2]
  proliferation: significantly decreased

## 278/403/404 (sense UGCCACGGUCGCCUCUGAGAATT; antisense UUCUCAGAGGCGACCGUGGCATT; siRNA; sugars by position and backbone not given here; further chemistry not fully specified)
[1]
  reduction in relative tumour volume: statistically significant
[2]; 5-FU 10 μM, 72 h, FIG. 17B
  Enhancement of effects of 5-fluoruracil compared with SEQ ID NO: 267/397/398: more marked
[2]; 72 h, FIG. 15
  Decrease in cell proliferation greater the higher the concentration of Injectin in the siRNA:Injectin complexes: particularly evident
[2]; 72 h, siRNA-ASCT2 at non-efficacious conditions (0.037% Injectin), FIG. 18
  Effect of siRNA-LAT1 SEQ ID NO: 58/387/388 upon proliferation in combination with the siRNA-ASCT2: enhanced
[2]; [3]
  cell proliferation: decreased
[2]; [4]
  cell proliferation: decreased
[2]
  proliferation: significantly decreased
